Key:
[1] = test system: brain phospholipid levels; assay: Brain phospholipid levels in gerbils given UMP diet and/or PUFA by gavage; format: in vivo, gerbil
Procedure: Cells were homogenized in 100 volumes of ice-cold deionized water using a tissue degrader (Polytron PT 10-35, Kinematica AG, Switzerland); 1 ml of aliquots were then mixed with 3 ml of chloroform+methanol mixture (2:1 v/v) and vortexed vigorously for 30 seconds. After cooling for 1 h on ice, the mixture was mixed sequentially with 3 ml of chloroform+methanol mixture (2:1 v/v) and 1 ml of ice-cold deionized water. The mixture was vortexed vigorously and allowed to stand overnight in the cold room (18 h). The organic (lower) and aqueous (upper) phases of the mixtures were separated by centrifugation (10 min at 4° C.; 1000 g). An aliquot (2 ml) of the upper phase was used for determination of CDP-Choline (see below), and 0.1-0.4 ml aliquots of the lower phase were dried under vacuum for phospholipid analysis. Residues of 0.1 ml aliquots of the lower phase were assayed for total phospholipid content by measuring phosphorus. Residues of 0.4 ml aliquots of the lower phase were reconstituted in 40 μl methanol and subjected to thin-layer chromatography using silica G plates (Adsorbosil Plus-1®, Alltech), and a system consisting of chloroform/ethanol/triethylamine/water (30:34:30:8) as the mobile phase. Phospholipid standards were used to identify the corresponding bands under UV light after the plates were sprayed with 0.1% diphenylhexatriene in petroleum ether. Bands for individual phospholipid classes (PC, PE, SM, PS and PI) were scraped off the plates and extracted into 1 ml of methanol; dried under vacuum; and assayed for phosphorus content. Total phosphorus was determined by comparison with standard curves by using KH2PO4 run with each assay. To each sample was added 0.5 ml of 4.5% HclO4/27% H2SO4 and tubes were heated at 180° C. for 3 h. After cooling to room temperature, 5 ml of the color reagent (a 10:1 dilution of solutions containing 2.5 mg/ml ammonium molybdate, 8.2 mg/ml sodium acetate and 100 mg/ml ascorbic acid respectively) was added and the tubes were incubated for 2 h, 37° C. Absorbance was measured spectrophotometrically at 820 nm. Phospholipid mass was determined by multiplying the phosphorus content by 25.
Control standard diet (Table 4) consisted of Teklad Global 16% protein rodent diet (Harlan Teklad, Madison, Wis.), which contained 0.1% choline chloride (CC), corresponding to a daily dose of 50 mg/kg/day. UMP was provided as 0.5% UMP·2Na^+ weight/weight, added to the control diet, also prepared by Harlan Teklad, corresponding to 240 mg/kg/day UMP. DHA was administered as 300 mg/kg/day in 200 microliter (mcL)/day 5% Arabic Gum solution, while groups not receiving DHA were administered vehicle (5% Arabic Gum) alone. DHA was provided by Nu-Chek Prep (Elysian, Minn.) and UMP by Numico (Wagenigen, NL).
Gerbils were anesthetized with ketamine and xylazine (80 and 10 mg/kg bwt, i.p.) and sacrificed by immersing the head into liquid nitrogen for 2 min, followed by decapitation. Brains were immediately and quickly (30 seconds) removed using a bone rongeur and stored at −80° C.
Frozen brain hemispheres were weighed and homogenized in 100 volumes of ice-cold deionized water using a tissue degrader (Polytron PT 10-35, Kinematica AG, Switzerland), then analyzed as described in Example 1.
Protein in whole brain homogenate sample was measured for using bicinchoninic acid reagent (Perkin Elmer, Norwalk, Conn., USA). DNA was measured by measuring 460 nm emission of samples on a fluorometer in the presence of bisbenzimidizole, a fluorescent dye known as Hoechst H 33258 (American Hoechst Corporation), which has an excitation maximum at 356 nm and an emission maximum of 458 when bound to DNA.
Male gerbils weighing 80-100 g were divided into 4 groups of 8 gerbils and administered the supplements depicted in Table 1: […]

brain CDP-choline levels = assay: Brain CDP-choline and CDP-ethanolamine levels in gerbils; format: in vivo, gerbil; conditions: 28 days
Excerpt: FIGS. 5A and 5B. FIG. 5A illustrates the effect Effects of DHA on brain CDP-choline levels (FIG. 5A) and while FIG. 5B illustrates the effect of DHA on brain CDP-ethanolamine levels (FIG. 5B). Groups of 8 gerbils received either a control or a UMP-containing diet, and, by gavage, DHA (in a vehicle of 5% gum Arabic solution) or 5% gum Arabic solution alone for 28 days. On the 29th day brains were harvested and assayed for CDP-choline. Data are presented as means±SEM. Statistical analysis was performed using one- or two-way ANOVA followed by Tukey test. a: P<0.05 when compared with the values for control diet plus vehicle group; b: P<0.05 when compared with values for UMP diet plus vehicle group.
Aliquots (2 ml) of the upper (aqueous) phase were dried under a vacuum, reconstituted, and injected into an HPLC. The dried samples were reconstituted in 100-200 μl water and were analyzed by HPLC on an anion exchange column (Alltech Hypersil APS-2, […], 250×4.6 mm). CDP-choline was eluted with a linear gradient of buffers A (H3PO4, 1.75 mM, pH 2.9) and B (NaH2PO2, 500 mM, pH 4.5) from 0 to 100% B over period of 30 min. With this system, CDP-choline was resolved from closely co-eluting substances such as UMP in an isocratic system over a period of 40 min. The retention time for CDP-choline was 9.5 min. The column was washed with buffer B at the end of each experiment and every several days to remove retained nucleotides. Individual nucleotide peaks were detected by UV absorption at 280 nm and were identified by comparison with the positions of authentic standards, as well as by the addition of nucleotide standards to samples.
To determine the effect of PUFA administration on CDP-choline levels, brain CDP-choline levels were measured in the animals from the previous Example. Administration of DHA and/or UMP decreased CDP-choline levels (FIG. 5A) and CDP-ethanolamine levels (FIG. 5B). DHA reduced CDP-choline levels by 26% (compared with those receiving just the control diet and DHA's vehicle), and in UMP-treated gerbils by 21% (compared with those receiving UMP-containing diet and DHA's vehicle) (both P<0.05).

**Q.** `CCC=CCC=CCC=CCC=CCC=CCC=CCCC(=O)O` [DHA, 4,7,10,13,16,19-docosahexaenoic acid] was tested. Which “Brain phospholipid levels” value ([1]; 3 weeks, Table 6) did it give?
**A.** increased

**Q.** What about the “Increase in levels of total phospholipids over control group” value ([1]; 4 weeks, gerbil brain) of the same compound?
**A.** 12%

**Q.** What about the “Total PtdCho” value ([1]; Table 5 part A) of the same compound?
**A.** 185 ± 12 nmol/mg prt

**Q.** And the “Total PtdEtn” value ([1]; Table 5 part A)?
**A.** 78 ± 5 nmol/mg prt

**Q.** What about the “Total PtdSer” value ([1]; Table 5 part A) of the same compound?
**A.** 39 ± 3 nmol/mg prt

**Q.** What about the “Total Ptdins” value ([1]; Table 5 part A) of the same compound?
**A.** 32 ± 2 nmol/mg prt

**Q.** What about the “CDP-choline levels (FIG. 5A)” value (brain CDP-choline levels) of the same compound?
**A.** decreased

**Q.** And the “CDP-ethanolamine levels (FIG. 5B)” value (brain CDP-choline levels)?
**A.** decreased

— patent publication US10736912B2, “Compositions containing PUFA and/or uridine and methods of use thereof” (MASSACHUSETTS INSTITUE OF TECHNOLOGY, priority 2005, dated 2020)
